SMILES strings stand for the structures.

The target of the assay is T1, RALY (Homo sapiens, UniProt Q9UKM9).
T1 sequence (Q9UKM9 2-306): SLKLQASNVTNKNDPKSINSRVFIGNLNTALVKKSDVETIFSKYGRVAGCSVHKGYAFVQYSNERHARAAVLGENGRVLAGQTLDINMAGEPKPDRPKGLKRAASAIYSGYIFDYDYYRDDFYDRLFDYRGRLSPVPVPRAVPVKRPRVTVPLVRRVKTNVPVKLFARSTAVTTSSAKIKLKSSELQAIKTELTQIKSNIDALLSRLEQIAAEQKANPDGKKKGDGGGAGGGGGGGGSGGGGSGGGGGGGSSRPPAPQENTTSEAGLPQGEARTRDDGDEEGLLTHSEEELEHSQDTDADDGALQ
Nature of the assay: surface plasmon resonance imaging. Format: binding. Background: SPR reads the build-up and loss of mass on a sensor chip optically.

By Kd is commonly meant the constant that tells how readily two partners part at equilibrium. A higher Kd goes with weaker binding. Turning to `CC(C)[C@H](CN)NC[C@H](C)NS(=O)(=O)c1ccc(C(C)(C)C)cc1` [2470-51, N-((S)-1-(((R)-1-amino-3-methylbutan-2-yl)amino)propan-2-yl)-4-(tert-butyl)benzenesulfonamide], the dissociation constant (Kd) is 15.5 µM.

Values taken from doi:10.1101/2023.10.02.559746v1 (biorxiv, 2023).
